The record followed here is ChEMBL document CHEMBL3232725, “2-Aryl-3H-indol-3-ones: synthesis, electrochemical behaviour and antiplasmodial activities” (Eur J Med Chem, 2014).

pIC50: −log10 of the molar value.

The nature of data set [1]: Cytotoxicity against human MCF7 cells after 48 hrs by XTT reduction assay. Format: cell-based.
Data set [2] is described as follows: Selectivity index, ratio of CC50 for human MCF7 cells to IC50 for chloroquine-resistant Plasmodium falciparum FcB1 infected in RBC. Format: functional.
Data set [3] deals with Plasmodium falciparum. Description: Antiplasmodial activity against chloroquine-resistant Plasmodium falciparum FcB1 infected in RBC assessed as inhibition of [3H]-hypoxanthine incorporation after 48 hrs by beta-counting. Format: functional, organism-based. The following applies: FcB1/Columbia.

Consider `O=C1C(c2ccccc2)=Nc2ccccc21`, for which, in data set [1], the 50% cytotoxic concentration (CC50) – broadly, the concentration that lowers cell viability or growth by half – at 48 h came to 164 µM. For the same compound, the “Ratio CC50/IC50” value in data set [2] worked out at 135. Moreover, the pIC50 (commonly the negative decadic logarithm of the IC50, by convention in mol/L) in data set [3] is 5.88.
The corresponding values for `COc1ccc(C2=Nc3ccccc3C2=O)cc1` are 38 µM, 74 and 6.29.
The corresponding values for `O=C1C(c2ccc(Cl)cc2)=Nc2ccccc21` are 20.3 µM, 105 and 6.72.
The corresponding values for `O=C1C(c2ccc(O)cc2)=Nc2ccccc21` are 130 µM, 1289 and 7.00.
Consider `COc1ccc2c(c1)C(=O)C(c1ccccc1)=N2`, for which the CC50 at 48 h in data set [1] was 21 µM. In addition, the “Ratio CC50/IC50” value in data set [2] was 146. The pIC50 in data set [3] was 6.85.
The corresponding values for `COc1ccc(C2=Nc3ccc(OC)cc3C2=O)cc1` are 30.7 µM, 381.4 and 7.10.
The corresponding values for `COc1ccc2c(c1)C(=O)C(c1ccc(N(C)C)cc1)=N2` are 20.7 µM, 423.4 and 7.31.
For `COc1ccc2c(c1)C(=O)C(c1ccc(OC(C)C)cc1)=N2`, in that order: 11.2 µM, 127 and 7.06.
Take `COc1ccc2c(c1)C(=O)C(c1ccc(O)cc1)=N2`: in data set [1], the half-maximal cytotoxic concentration (CC50) at 48 h was 16 µM. For the same compound, in data set [2], the “Ratio CC50/IC50” value worked out at 164. The pIC50 in data set [3] was 7.00.
For `C[C@H]1[C@H](OC(=O)CCC(=O)O)O[C@@H]2O[C@@]3(C)CC[C@H]4[C@H](C)CC[C@@H]1[C@@]24OO3` [SODIUM ARESUNATE], the negative-log IC50 (pIC50) in data set [3] is 8.22.
